Where a name gives a salt, the structure may show the parent alone. Read-outs that look alike come from different tables or passages of the source. Peptide text beside a SMILES is read from it. * marks the point of attachment. Cbz = O=C(OCc1ccccc1)*
Columns and labels:
proteasome [1] = target: T1, proteasome (Homo sapiens, UniProt P28072+P28074+Q99436); experiment: In-Cell Fluorogenic Proteasome Assay, HepG2; type: cell-based; parameters: endogenous in cells; host or cells: HepG2 (A9), T98G (A10), digitonin/Tween-permeabilised whole cells; conditions: for trypsin, chemotrypsin and caspase-like proteasome activities: whole HepG2 cell
T1 sequence (P28074 60-263): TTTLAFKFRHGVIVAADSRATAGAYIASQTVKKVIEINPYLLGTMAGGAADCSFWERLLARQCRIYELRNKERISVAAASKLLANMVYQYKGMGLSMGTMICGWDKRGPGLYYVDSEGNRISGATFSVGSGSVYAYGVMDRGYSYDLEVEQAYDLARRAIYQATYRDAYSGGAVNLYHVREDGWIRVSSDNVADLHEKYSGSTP
T1 sequence (Q99436 44-277): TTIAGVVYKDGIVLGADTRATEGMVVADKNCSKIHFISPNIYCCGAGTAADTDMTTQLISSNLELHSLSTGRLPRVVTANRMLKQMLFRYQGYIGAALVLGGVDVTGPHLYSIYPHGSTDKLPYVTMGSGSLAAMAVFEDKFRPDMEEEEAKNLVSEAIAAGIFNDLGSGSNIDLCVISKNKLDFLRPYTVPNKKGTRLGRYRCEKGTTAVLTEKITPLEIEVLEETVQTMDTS
T1 sequence (P28072 1-239): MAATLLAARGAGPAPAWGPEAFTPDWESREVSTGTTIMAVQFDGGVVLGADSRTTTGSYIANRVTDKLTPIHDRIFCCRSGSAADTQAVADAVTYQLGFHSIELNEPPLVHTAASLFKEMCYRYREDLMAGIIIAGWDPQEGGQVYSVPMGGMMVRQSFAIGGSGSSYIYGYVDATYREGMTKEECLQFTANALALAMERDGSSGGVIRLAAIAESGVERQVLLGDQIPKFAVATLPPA
Procedure: (§1) For a 96-well plate format, 8×10^3 cells per well were seeded. 24 hours later medium was changed with NMDAR blocker containing medium. Two hours later 100 μl of 2× flourescence cell buffer: (1 ml 1M tris hcl ph: 7.5, 500 μl 1M KCL, 200 μl […], 200 μl 0.1M MgCL2, 50 μl % 0.2 tween 20, 75 μl digitonin 20 mg/ml in DMSO ChemCruz cat no: sc-280675, 10 μl flourescence substrates including Suc-LLVY-AMC, Z-LLE-AMC, and Ac-RLR-AMC Ac-RLR-AMC, 8.1 ml H2O). After incubation at room temperature for a 5 minutes the flourescence of each sample were measured in a flourescence spectrometer (Biotek instrument-Synergy HT).

p21-GFP fusion protein = p21-GFP fusion protein amount in cells; type: cell-based, human
mice with GD symptoms = conditions: A/J, C3H/HeJ, DBA/2J, C57BL6/JolaHsd, CBE 25 mg/kg day, cited from earlier work
proteasome [2] = target: T1, proteasome; experiment: In-Cell Fluorogenic Proteasome Assay, T98G; type: cell-based; parameters: endogenous in cells; host or cells: T98G (A10), digitonin/Tween-permeabilised whole cells; conditions: whole T98G cell
Procedure: as §1

Ub-YFP = Ub-YFP degredation in Hep3B cells; type: cell-based, human
Procedure: This finding was supported by the following experiments; First, a model was developed to find inhibitor or inhibitors for the ubiquitin dependent degredation in the Hep3B cell line. For this purpose Hep3B cell expressing Ub-YFP genome were prepared. Ub-YFP is a system which was used to detect the ubiquitin dependent proteasome activity (26S). It is also known that Ub-YFP is not affected by the ubiquitin-independent protesome system. In further experiments, we tested molecules which are involved in different parts of the ubiquitination processes including PYR41 (Ubiquitin-activating enzyme (E1) inhibitor), NCC697923 (UBE2N E2 ubiquitin-conjugating enzyme inhibitor), SMER3 (ubiquitin ligase E3 inhibitor), SZL-P1-411 (Skp2 E3 ligase inhibitor), SKPIN C1 (Skp2 E3 ligase inhibitor), P005091 (USP7 inhibitor), Vialin A (USP4 and USP5 inhibitor), Spautin A (USP10 and USP13 inhibitor), ML 323 (USP1-UAF1 inhibitor), IU1 (USP14 inhibitor), and Mg132 (protesome inhibitor) for the inhibition of Ub-YFP degredation. […] MG132 was used as the inhibitor of the protesome activity (FIG. 12A). In the next experiment YFP protein amount was investigated in the presence of ketamin, Pyr41, and ketamin and Pyr41 together by western blot in Hep3B cell.
The Ub-R-YFP open-reading frame was obtained from Ub-R-YFP was a gift from Nico Dantuma (Addgene plasmid #11948). Ub-R-YFP sequence was obtained from the original vector by cutting the plasmid with NheI and NotI enzymes (Thermo Scientific), blunt ended and was cloned into pBSK-clo2D which is cut by EcoRV restriction enzyme (SibEnzyme, E059). Ub-R-YFP was obtained from the pBSK-clo2D vector by cutting with BamHI. pLV-EF1a-IRES-Puro (85132-Addgene) vector was cut by BamHI restriction enzyme and dephospharylated and ligated with Ub-R-YFP. After the orientation construct was determined, pLV-EF1a-IRES-Puro-Ub-R-YFP was reproduced in large volumes using DH5a E. Coli.
Hek293T cells were transfected with the pLV-EF1a-IRES-Puro-Ub-R-YFP and helper vectors psPAX2 and pMD2.G using Calcium Phosphate Mammalian Transfection Kit (631312-Takara bio). After 48 h supernatants containing Ub-R-YFP lentivirus were collected and target cells were infected under the presence of […] polybrene. After 24 hours, the media of the cells were replaced with media containing […] puromycin for 6 days. Then living cells were combined in a pool. Infected clones were maintained in the presence of 250 ng/ml puromycin.

CN1C(=O)[C@]23CC4=CC=C[C@H](O)[C@H]4N2C(=O)[C@@]1(CO)SS3 [Gliotoxin]
chemotrypsin activity of proteasome at low dose of Gliotoxin (proteasome [1]; 5 uM, compared to control): not statistically changed
chemotrypsin activity of proteasome at high dose of gliotoxin (proteasome [1]; 25 uM, in the presence of NMDR blockers): inhibited

OO [H2O2]
GFP signal of p21-GFP (p21-GFP fusion protein): increased the GFP signal dramatically

Cc1cc(C(=O)CN2CCCC2)c(C)n1-c1ccc(F)cc1 [IU1]
trypsin, chemotrypsin and caspase-like proteasome activities (proteasome [1]): increases

C[C@]12N[C@H](Cc3ccccc31)c1ccccc12 [MK801, (5S,10R)-(+)-5-Methyl-10,11-dihydro-5H dibenzo [a,d]cyclobepten-5,10-imine maleate]
life span of mice with Gaucher disease symptoms (mice with GD symptoms): dramatically extended
life span of mice with Gaucher disease symptoms (mice with GD symptoms; listed as MK-801): increase
trypsin, chemotrypsin and caspase-like proteasome activities (proteasome [1]): increased
trypsin, chemotrypsin and caspase-like proteasome activities (proteasome [2]): increased

CC(C)C[C@@H](C=O)NC(=O)[C@H](CC(C)C)NC(=O)[C@H](CC(C)C)NC(=O)OCc1ccccc1 [Mg132] (Cbz-Leu-Leu-Leu-aldehyde)
trypsin activity of proteasome (proteasome [1]; whole cell, HepG2, T98G and Hep3B): did not inhibit
chemotrypsin activity of proteasome (proteasome [1]; whole cell, substance alone): inhibits

CCOC(=O)c1ccc(N2NC(=O)/C(=C/c3ccc([N+](=O)[O-])o3)C2=O)cc1 [PYR41]
Ub-YFP degredation (Ub-YFP; Hep3B expressing Ub-YFP): inhibits
YFP protein amount (Ub-YFP; Hep3B, western blot): increase
p21-GFP fusion protein / GFP amount (p21-GFP fusion protein): increase

— patent US20250161238A1, “NMDAR Antagonists Prevent Ageing and Aging-Associated Conditions and Diseases Through Increasing 20S Proteasome Activity” (priority 2022, published 2025)
